# Columns and labels:
# [1] = biological target: T1, complex I (CI), NADH-binding site (Bos taurus, UniProt P25708); test: NADH:APAD+ oxidoreduction, absorbance; type: biochemical; conditions: 500 µM APAD+, 100 µM NADH, 500 nM piericidin A; pH 7.5, 32 °C
# T1 construct: gene NDUFV1; native 45-subunit complex from heart mitochondria, purified in LMNG, in proteoliposomes; with NADH dehydrogenase [ubiquinone] flavoprotein 2, mitochondrial; NADH-ubiquinone oxidoreductase 75 kDa subunit, mitochondrial; NADH dehydrogenase [ubiquinone] iron-sulfur protein 2, mitochondrial; NADH dehydrogenase [ubiquinone] iron-sulfur protein 7, mitochondrial
# T1 sequence (P25708 21-464, one chain of several): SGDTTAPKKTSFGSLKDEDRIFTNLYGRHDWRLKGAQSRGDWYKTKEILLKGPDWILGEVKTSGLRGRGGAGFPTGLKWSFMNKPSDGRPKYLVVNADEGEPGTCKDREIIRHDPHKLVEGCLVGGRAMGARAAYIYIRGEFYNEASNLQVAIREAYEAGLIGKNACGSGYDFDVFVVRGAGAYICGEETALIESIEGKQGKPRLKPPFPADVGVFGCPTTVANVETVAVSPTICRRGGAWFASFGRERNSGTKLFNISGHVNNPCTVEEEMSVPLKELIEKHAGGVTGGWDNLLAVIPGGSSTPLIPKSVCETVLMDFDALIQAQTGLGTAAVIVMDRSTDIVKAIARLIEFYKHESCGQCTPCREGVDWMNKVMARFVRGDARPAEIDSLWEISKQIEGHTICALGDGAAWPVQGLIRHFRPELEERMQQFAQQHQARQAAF
# [2] = biological target: T1, complex I (CI), NADH-binding site; test: NADH oxidation by CI-PLs with AOX, absorbance; type: biochemical; conditions: 200 µM NADH, ubiquinone-10, AOX; pH 7.5, 32 °C
# [3] = biological target: T2, complex I (CI), ubiquinone-10-binding site (Bos taurus, UniProt P03887+P17694+P42026); test: cryoEM structure in proteoliposomes; conditions: CI-out-closed state, 2.5 Å; native substrate, deep-bound
# T2 construct: gene NDUFS2; native 45-subunit complex from heart mitochondria, purified in LMNG, reconstituted in proteoliposomes (CI-PLs); natural variant NDUFS2-129 modelled as Arg; with NADH-ubiquinone oxidoreductase chain 3; NADH-ubiquinone oxidoreductase chain 6; NADH dehydrogenase [ubiquinone]; 1 alpha subcomplex subunit 9, mitochondrial
# T2 sequence (P17694 34-463): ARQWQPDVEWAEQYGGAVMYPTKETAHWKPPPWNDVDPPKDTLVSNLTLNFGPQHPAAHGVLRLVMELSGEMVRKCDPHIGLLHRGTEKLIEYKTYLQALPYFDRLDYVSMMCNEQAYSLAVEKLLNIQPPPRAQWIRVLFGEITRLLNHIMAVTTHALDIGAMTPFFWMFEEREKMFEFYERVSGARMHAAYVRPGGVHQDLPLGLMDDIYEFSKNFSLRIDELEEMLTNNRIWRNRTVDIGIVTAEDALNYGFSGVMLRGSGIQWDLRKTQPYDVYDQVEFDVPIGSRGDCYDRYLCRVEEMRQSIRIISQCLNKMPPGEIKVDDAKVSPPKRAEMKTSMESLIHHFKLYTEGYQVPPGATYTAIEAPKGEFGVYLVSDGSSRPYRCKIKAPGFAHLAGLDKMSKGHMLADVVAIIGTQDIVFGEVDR
# T2 sequence (P03887 whole entry): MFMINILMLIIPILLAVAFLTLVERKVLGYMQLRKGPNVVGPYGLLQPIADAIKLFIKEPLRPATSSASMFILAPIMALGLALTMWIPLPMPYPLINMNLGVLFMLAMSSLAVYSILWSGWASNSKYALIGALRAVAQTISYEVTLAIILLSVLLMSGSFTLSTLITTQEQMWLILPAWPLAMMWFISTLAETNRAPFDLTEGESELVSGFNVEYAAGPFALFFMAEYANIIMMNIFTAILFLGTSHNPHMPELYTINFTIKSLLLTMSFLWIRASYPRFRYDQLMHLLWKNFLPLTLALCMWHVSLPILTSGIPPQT
# T2 sequence (P42026 38-216): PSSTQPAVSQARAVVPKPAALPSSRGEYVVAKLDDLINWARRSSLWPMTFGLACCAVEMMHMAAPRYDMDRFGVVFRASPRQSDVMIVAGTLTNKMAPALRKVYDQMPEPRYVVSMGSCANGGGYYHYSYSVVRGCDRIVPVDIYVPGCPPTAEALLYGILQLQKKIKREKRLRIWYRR
smiles,measurement,setting,value
CC(=O)c1ccc[n+]([C@@H]2O[C@H](COP(=O)([O-])OP(=O)(O)OC[C@H]3O[C@@H](n4cnc5c(N)ncnc54)[C@H](O)[C@@H]3O)[C@@H](O)[C@H]2O)c1 [APAD^+],"NADH:APAD+ oxidoreduction, absorbance",[1],Complex I concentration in CI-PLs was determined using the NADH:APAD^+ oxidoreduction reaction
NC(=O)C1=CN([C@@H]2O[C@H](COP(=O)(O)OP(=O)(O)OC[C@H]3O[C@@H](n4cnc5c(N)ncnc54)[C@H](O)[C@@H]3O)[C@@H](O)[C@H]2O)C=CC1 [NADH],"NADH oxidation by CI-PLs with AOX, absorbance",[2],NADH:O2 oxidoreduction rates were measured as the rates of NADH oxidation
COC1=C(OC)C(=O)C(C/C=C(\C)CC/C=C(\C)CC/C=C(\C)CC/C=C(\C)CC/C=C(\C)CC/C=C(\C)CC/C=C(\C)CC/C=C(\C)CC/C=C(\C)CCC=C(C)C)=C(C)C1=O [ubiquinone-10],cryoEM structure in proteoliposomes,[3],"The CI-in/out-closed structures exhibit well-ordered density for ubiquinone-10, inserted fully into its active site"

# From doi:10.1101/2023.12.14.571638v1, “Structural basis of a regulatory switch in mammalian complex I” (biorxiv, 2023)
